# Legend:
# [1] = test system: MIA PaCa2 cells; assay: Cell viability / cytotoxic effect in MIA PaCa2 cells (EZ-CYTOX/MTT); assay type: cell-based; settings: Homo sapiens, MIA PaCa-2, 2.5-40 µM, 24 h, relative IC50
# Experimental: The human pancreatic ductal epithelial cell lines MIA Paca2, PANC-1 were maintained in DMEM media with 10% fetal bovine serum (FBS), 100 U/mL penicillin, and 100 µg/mL streptomycin at 37 °C in a humidified 5% CO2/95% air atmosphere. Cells were seeded in 96-well plates at a density of 3000 cells/100 μL/well and incubated for 24 h. The cells were then incubated in a culture medium containing synthetic compounds. Following 24 h of incubation, the cell viability was determined using an EZ-CYTOX kit (DaeilLab Service, Seoul, Korea) according to the manufacturer’s protocol (n = 12).
# Supplementary Figure 1. Relative IC50 determination of Compound 5, Compound 10, PF-543, and FTY720. MIAPaCa2 cells were seeded in 96 well plates and treated with 2.5-40 µ M of compounds for 24h. Cell viability was assessed using MTT assay, and Relative IC50 was determined using Graph pad prism software. The result is representative of three independent experiments and data are presented as mean ± SD. *** p < 0.001 compared with non-treated […]
# (1 picture or pasted object on this page, not shown here)
# [2] = test system: MIA PaCa2 cells; assay: Ceramide, S1P and sphingosine levels by ELISA in MIA PaCa2 cells; assay type: cell-based, human; settings: 20 µM
# Experimental: Ceramide, sphingosine, and S1P level were performed as protocols recommended by Mybiosource using the ceramide, sphingosine, and S1P ELISA kit (MyBiosource Inc., San Diego, CA, USA). Ceramide and sphingosine S1P measurements were tested with proteins that were centrifuged and collected by repeating freezing and thawing from three to five times after adding PBS to cells.
# [3] = test system: MIA PaCa2 cells; assay: Mitochondrial membrane potential, JC-10 staining; assay type: cell-based, human; settings: 20 µM
# Experimental: To measure the degree of MMP change of cancer cells, 20 μM JC-10 dye and assay buffer (Enzo Co., New York, NY, USA) were added to the cells cultured for 24 h and mixed until the cells were completely dissolved. Subsequently, the cells were incubated in the dark for 30 min at room temperature. The solutions were protected from light and analyzed by using flow cytometry.
# [4] = test system: MIA PaCa2 cells; assay: Western blot of apoptosis-related proteins; assay type: cell-based, human; settings: 20 µM, 24 h
# Experimental: Cell extracts from MIA Paca2 cells were determined by BCA Protein Assay Kit (Thermo Scientific) according to the manufacturer’s instructions. Separate 20–30 μg protein by electrophoresis using Tris-Glycine gel and transfer to PVDF membranes. After transferring and blocking, the membrane was incubated with the primary antibody in TBS-T buffer containing 5% skim milk overnight at 4 °C. Then, the membrane was washed three times with TBS-T, and the secondary antibody was incubated. Chemiluminescence detection was performed using a Western blot detection kit (Milipore). Bax, Bcl-2, Caspase-3, PARP, AKT, p-AKT, ERK, and p-ERK were used for Western blot analysis. Internal controls were detected using Actin antibody.
# [5] = test system: PP2A; assay: PP2A immunoprecipitation phosphatase activity assay in MIA PaCa2 cells; assay type: cell-based, human; settings: 20 µM
# Experimental: PP2A activity assay was a PP2A immunoprecipitation phosphatase assay kit operated according to the manufacturer’s instruction. Briefly, a prepared protein aliquot was incubated with anti-PP2A subunit C-antibody and protein A agarose slurry at 4 °C for 2–3 h, and then phosphopeptide was added. Samples were recorded by Thermo Scientific Multiskan GO.
# [6] = In vitro metabolic stability in dog liver microsomes; assay type: in vitro ADME; settings: NADPH, 30 min
# [7] = In vitro metabolic stability in rat liver microsomes; assay type: in vitro ADME; settings: NADPH, 30 min
# [8] = In vitro metabolic stability in mouse liver microsomes; assay type: in vitro ADME; settings: NADPH, 30 min
# [9] = In vitro metabolic stability in human liver microsomes; settings: human liver microsomes 0.5 mg/mL, NADPH, 30 min
# Experimental: Microsomal incubations were conducted in triplicate in 0.1 M potassium phosphate buffer (pH 7.4) in a clean 1.5 mL Eppendorf tube. […] The final incubation mixtures contained 0.5 mg/mL HLM, 0.1 M potassium phosphate buffer (pH 7.4), NADPH regenerating system (1 mM NADPH, 10 mM MgCl2). HLM was added, and the mixture was pre-incubated at 37 °C in a shaking incubator at approximately 350 rpm for 5 min under a Thermo mixer (Eppendorf., Hamburg, Germany). Reactions were initiated by the addition of 1 mM NADPH and were then quenched by adding 40 µL of ice-cold acetonitrile containing 10 µM chlorpropamide (CPP) as an internal standard at 0 and 30 min. The incubation mixtures were then centrifuged at 15,000 g for 5 min at 4 °C. A 2 µL aliquot of the supernatant was directly injected into the LC-MS/MS system. The LC-MS/MS system consisted of the Nexera XR HPLC system (Shimadzu Co., Kyoto, Japan) coupled to the TSQ Vantage triple quadrupole mass spectrometer equipped with Xcalibur version 1.1.1 (Thermo Fisher Scientific Inc., Waltham, MA, USA).
# [10] = biological target: T1, SPHK1 (Homo sapiens, UniProt Q9NYA1); assay: Sphingosine kinase 1 activity assay (Adapta screening system); assay type: biochemical; settings: 20 µM compound
# T1 construct: purchased Thermo Fisher Scientific
# T1 sequence (Q9NYA1 whole entry): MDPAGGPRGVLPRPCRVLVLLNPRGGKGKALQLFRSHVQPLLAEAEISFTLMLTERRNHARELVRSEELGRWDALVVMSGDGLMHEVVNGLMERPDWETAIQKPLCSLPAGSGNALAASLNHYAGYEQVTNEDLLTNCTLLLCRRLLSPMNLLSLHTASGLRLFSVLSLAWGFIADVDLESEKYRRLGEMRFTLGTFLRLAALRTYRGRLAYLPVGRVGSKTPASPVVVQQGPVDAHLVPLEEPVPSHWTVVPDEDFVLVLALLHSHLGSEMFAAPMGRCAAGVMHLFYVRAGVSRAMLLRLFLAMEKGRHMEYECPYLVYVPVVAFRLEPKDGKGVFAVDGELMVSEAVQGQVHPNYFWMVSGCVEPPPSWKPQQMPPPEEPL
# Experimental: (§1) SK 1/2 activity was measured using 20 μM PF-543 and compounds 1–10 using the AdaptaTM screening system (Thermo Fisher Scientific system). Sphingosine kinase 1 activity assay used 0.04–0.16 ng SPHK1, 50 μM sphingosine lipid substrate in 32.5 mM HEPES pH 7.5, 0.005% BRIJ 35, 5 mM MgCl2, 0.5 mM EGTA. Sphingosine kinase 2 activity assay detected 35–140 ng SPHK2, 50 μM sphingosine lipid substrate in 32.5 mM HEPES pH 7.5, 0.5 mM EGTA, and 1.5 mM MgCl2.
# [11] = biological target: T2, SPHK2 (Homo sapiens, UniProt Q9NRA0); assay: Sphingosine kinase 2 activity assay (Adapta screening system); assay type: biochemical; settings: 20 µM compound
# T2 construct: purchased Thermo Fisher Scientific
# T2 sequence (Q9NRA0 1-654): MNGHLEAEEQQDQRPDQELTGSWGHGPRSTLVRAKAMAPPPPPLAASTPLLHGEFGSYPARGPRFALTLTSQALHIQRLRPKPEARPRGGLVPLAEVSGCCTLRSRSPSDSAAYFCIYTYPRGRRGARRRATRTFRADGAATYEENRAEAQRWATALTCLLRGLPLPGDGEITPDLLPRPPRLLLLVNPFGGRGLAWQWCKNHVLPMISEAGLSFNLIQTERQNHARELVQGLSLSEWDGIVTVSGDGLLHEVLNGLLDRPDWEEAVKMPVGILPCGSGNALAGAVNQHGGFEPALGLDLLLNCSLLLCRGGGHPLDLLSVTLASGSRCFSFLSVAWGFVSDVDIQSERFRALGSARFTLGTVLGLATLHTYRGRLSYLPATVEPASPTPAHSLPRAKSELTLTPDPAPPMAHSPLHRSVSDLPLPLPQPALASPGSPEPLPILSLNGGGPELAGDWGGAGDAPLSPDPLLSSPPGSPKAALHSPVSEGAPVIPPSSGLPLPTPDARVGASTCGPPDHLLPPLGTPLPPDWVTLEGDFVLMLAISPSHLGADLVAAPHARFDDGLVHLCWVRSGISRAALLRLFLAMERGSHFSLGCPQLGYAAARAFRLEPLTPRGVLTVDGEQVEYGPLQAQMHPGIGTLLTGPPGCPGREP
# Experimental: as §1
# [12] = test system: MIA PaCa2 cells; assay: Annexin-V apoptosis assay (flow cytometry); assay type: cell-based, human; settings: 20 µM
# Experimental: Cell apoptosis assay was determined using annexin V- FITC and propidium iodide (PI) staining, as described in manufacturer instruction (BioBud, Gyeonggi-do, Korea). Briefly, the cells were resuspended in binding buffer and then incubated with annexin-V-FITC and propidium iodide at room temperature. After incubation, stained cells were analyzed by MACSQuant Analyzer 10 Flow Cytometer (Miltenyi Biotec, Bergisch Gladbach, Germany). The experiment was conducted three times independently (n = 6).
# [13] = test system: SK1; set-up: method as in PMID 30889352; settings: cited from earlier work
# [14] = test system: SK2; set-up: method as in PMID 30889352; settings: cited from earlier work
Structure (SMILES),IC50 [1] [µM],S1P level [2],"mitochondrial membrane potential (ratio of red to green fluorescence, JC-10) [3]","expression of pro-apoptotic proteins (cleaved PARP, cleaved caspase-3) [4]",PP2A activity [5],"In vitro stability, Dog (%) [6] [%]","In vitro stability, Rat (%) [7] [%]","In vitro stability, Mouse (%) [8] [%]","In vitro stability, Human (%) [9] [%]",SK1-inhibitory effect [10],SK2-inhibitory effect [11],ceramide level [2],sphingosine level [2],apoptotic effect (annexin-V) [12],expression of anti-apoptotic protein Bcl-2 [4],IC50 [13] [µM],IC50 [14] [µM]
"Cc1cc(Cn2cc(-c3ccccc3)nn2)cc(OCc2ccc(CN3CCC(CO)CC3)cc2)c1 [Compound 5, (1-(4-((3-Methyl-5-((4-phenyl-1H-1,2,3-triazol-1-yl)methyl)phenoxy)methyl)benzyl)piperidin-4-yl)methanol]",26.1,increased the S1P level,significantly reduced the mitochondrial membrane potential,insignificant compared to the compound 10 treatment group,little effect on PP2A,40.8,27.6,17.9,45.4,–,–,–,–,–,–,–,–
"CCCCCCCCc1cn(Cc2cc(C)cc(OCc3ccc(CN4CCC(CO)CC4)cc3)c2)nn1 [Compound 10, (1-(4-((3-Methyl-5-((4-octyl-1H-1,2,3-triazol-1-yl)methyl)phenoxy)methyl)benzyl)piperidin-4-yl)methanol]",11.1,reduced the levels of S1P and sphingosine,significantly reduced the mitochondrial membrane potential,cleaved form of PARP and caspase-3 increased,activated PP2A,58.3,53.3,33.3,66.7,inhibited both SK1 and SK2,inhibited both SK1 and SK2,the ceramide level increased,reduced the levels of S1P and sphingosine,high apoptotic effect,Bcl-2 decreased,–,–
"CCCCCCCCc1ccc(CCC(N)(CO)CO)cc1 [FTY720, reference compound]",9.57,–,–,–,–,–,–,–,–,–,–,–,–,–,–,–,–
Cc1cc(CS(=O)(=O)c2ccccc2)cc(OCc2ccc(CN3CCC[C@@H]3CO)cc2)c1 [PF-543],–,reduce the level of S1P,significantly reduced the mitochondrial membrane potential,–,also activated PP2A,2.9,4.7,7.5,–,–,–,did not significantly change the levels of ceramide and sphingosine,did not significantly change the levels of ceramide and sphingosine,–,–,–,–
OC[C@H]1CCCN1Cc1ccc(COc2cccc(OCc3ccc(Cl)cc3)c2)cc1 [compound 55],–,–,–,–,–,–,–,–,–,–,–,–,–,–,–,4.13,0.041

# Reference: PMC9145885, “Synthesis of PP2A-Activating PF-543 Derivatives and Investigation of Their Inhibitory Effects on Pancreatic Cancer Cells” (Molecules, 2022)
